Experimental data published in PMC5192239 (Data in Brief, 2016).

How the values were obtained:
[1] = molecular target: T1, human phosphoglucomutase 1 (hPGM1) (Homo sapiens, UniProt P36871); experiment: ESI-MS of intact purified protein:[…] phosphorylation of active site serine after incubation; assay type: biochemical
T1 construct: gene PGM1
T1 sequence (P36871 1-562): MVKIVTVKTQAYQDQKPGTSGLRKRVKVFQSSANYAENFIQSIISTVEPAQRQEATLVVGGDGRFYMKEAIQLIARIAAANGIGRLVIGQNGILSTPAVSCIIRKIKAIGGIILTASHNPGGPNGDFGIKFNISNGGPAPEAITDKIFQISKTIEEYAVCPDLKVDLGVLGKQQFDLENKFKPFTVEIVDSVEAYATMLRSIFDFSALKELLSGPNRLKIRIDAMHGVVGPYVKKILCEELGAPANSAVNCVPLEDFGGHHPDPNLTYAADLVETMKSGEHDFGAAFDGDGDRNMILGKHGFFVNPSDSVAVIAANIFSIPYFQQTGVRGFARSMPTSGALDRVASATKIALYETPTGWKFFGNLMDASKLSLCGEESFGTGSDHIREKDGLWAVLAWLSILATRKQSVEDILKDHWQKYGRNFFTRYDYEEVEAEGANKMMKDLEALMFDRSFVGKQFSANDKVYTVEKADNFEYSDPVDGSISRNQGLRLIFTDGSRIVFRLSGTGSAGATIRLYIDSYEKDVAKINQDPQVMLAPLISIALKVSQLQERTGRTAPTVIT

[2] = molecular target: T2, Pseudomonas aeruginosa PMM/PGM (PaPMM) (Pseudomonas aeruginosa, UniProt P26276); experiment: coupled G6PDH enzyme assay, noncompetitive inhibition fit; also ESI-MS dephosphorylation of active site serine; assay type: biochemical
T2 construct: gene algC

[3] = molecular target: T2, Pseudomonas aeruginosa PMM/PGM (PaPMM); experiment: product formation in coupled G6PDH assay; ESI-MS dephosphorylation of catalytic serine ([…]); assay type: biochemical
[4] = molecular target: T2, Pseudomonas aeruginosa PMM/PGM (PaPMM); experiment: coupled G6PDH enzyme assay, competitive inhibition fit (text prints Ki in μM; Fig. […] legend prints mM); assay type: biochemical
[5] = system: O=P(O)(O)O[C@H]1O[C@H](CO)[C@@H](O)[C@H](O)[C@H]1O; experiment: purified protein

T2 sequence (P26276 2-463): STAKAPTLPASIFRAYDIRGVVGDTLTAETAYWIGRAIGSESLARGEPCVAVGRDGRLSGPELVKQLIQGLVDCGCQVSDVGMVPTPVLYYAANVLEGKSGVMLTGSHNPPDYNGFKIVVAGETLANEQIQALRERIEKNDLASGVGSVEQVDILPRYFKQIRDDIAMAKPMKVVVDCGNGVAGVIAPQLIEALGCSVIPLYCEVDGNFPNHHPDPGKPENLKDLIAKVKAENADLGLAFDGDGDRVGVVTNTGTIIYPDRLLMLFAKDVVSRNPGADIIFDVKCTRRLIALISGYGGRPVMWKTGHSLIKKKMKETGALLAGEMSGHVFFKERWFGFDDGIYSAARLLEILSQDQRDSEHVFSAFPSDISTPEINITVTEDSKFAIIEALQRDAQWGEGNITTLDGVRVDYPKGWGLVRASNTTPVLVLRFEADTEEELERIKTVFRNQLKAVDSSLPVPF

Compound: O=C(COP(=O)(O)O)[C@@H](O)[C@H](O)[C@H](O)COP(=O)(O)O [F16P, fructose 1,6-bisphosphate]
- ESI-MS of intact purified protein: 92% phosphorylation of active site serine aft [1]: Treatment of hPGM1 with F16P was done herein

Compound: N[C@H]1C(OP(=O)(O)O)O[C@H](CO)[C@@H](O)[C@@H]1O (some centres unmarked) [GlcN1P, glucosamine 1-phosphate]
- Ki [2]: 307 ± 29 µM

Compound: O=C[C@H](O)[C@@H](O)[C@H](O)[C@H](O)COP(=O)(O)O [G6P, glucose 6-phosphate]
- product formation in coupled G6PDH assay; ESI-MS dephosphorylation of catalytic [3]: Enzymatic activity of PaPMM was quantified by measuring the formation of glucose 6-phosphate (G6P)

Compound: O=P(O)(O)O[C@H]1OC[C@@H](O)[C@H](O)[C@H]1O [X1P, xylose 1-phosphate]
- Ki [4]: 8.6 ± 0.3 µM

Compound: Pseudomonas aeruginosa PMM/PGM (PaPMM) (Pseudomonas aeruginosa PAO1)
- Km [5]: 28 ± 2.8 µM
